Measured values: the supplement of paper PMC11451515

Test system: P12-Ichikawa
Assay: cell viability relative to DMSO control; higher = less cytotoxic
Details: 48 h
Outline: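 NOMO1 or SEM cells were plated at 500 cells/well and P12-Ichikawa cells at 1000 cells/well in 1536-well plates (5 μl), after each leukemia line had been adapted for at least four passages in each medium. Pin dosing delivered library compounds in DMSO at 11 threefold concentrations, 47 μM to 0.79 nM. CellTiter-Glo One luminescence was read after 48 h at 37°C. Viability is reported as a per-plate percentage of DMSO wells, with cell-free wells as background.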

[1] = HPLM + 10% dialyzed FBS, 0.000781 µM
[2] = HPLM + 10% dialyzed FBS, 0.00234 µM
[3] = HPLM + 10% dialyzed FBS, 0.00702 µM
[4] = HPLM + 10% dialyzed FBS, 0.0211 µM
[5] = HPLM + 10% dialyzed FBS, 0.0632 µM
[6] = HPLM + 10% dialyzed FBS, 0.19 µM
[7] = HPLM + 10% dialyzed FBS, 0.569 µM
[8] = HPLM + 10% dialyzed FBS, 1.71 µM
[9] = HPLM + 10% dialyzed FBS, 5.12 µM
[10] = HPLM + 10% dialyzed FBS, 15.4 µM
[11] = HPLM + 10% dialyzed FBS, 46.1 µM
[12] = RPMI 5 mM glucose + 10% FBS, 0.000781 µM
[13] = RPMI 5 mM glucose + 10% FBS, 0.00234 µM
[14] = RPMI 5 mM glucose + 10% FBS, 0.00702 µM
[15] = RPMI 5 mM glucose + 10% FBS, 0.0211 µM
[16] = RPMI 5 mM glucose + 10% FBS, 0.0632 µM
[17] = RPMI 5 mM glucose + 10% FBS, 0.19 µM
[18] = RPMI 5 mM glucose + 10% FBS, 0.569 µM
[19] = RPMI 5 mM glucose + 10% FBS, 1.71 µM
[20] = RPMI 5 mM glucose + 10% FBS, 5.12 µM
[21] = RPMI 5 mM glucose + 10% FBS, 15.4 µM
[22] = RPMI 5 mM glucose + 10% FBS, 46.1 µM
[23] = RPMI 5 mM glucose + 10% dialyzed FBS, 0.000781 µM
[24] = RPMI 5 mM glucose + 10% dialyzed FBS, 0.00234 µM
[25] = RPMI 5 mM glucose + 10% dialyzed FBS, 0.00702 µM
[26] = RPMI 5 mM glucose + 10% dialyzed FBS, 0.0211 µM
[27] = RPMI 5 mM glucose + 10% dialyzed FBS, 0.0632 µM
[28] = RPMI 5 mM glucose + 10% dialyzed FBS, 0.19 µM
[29] = RPMI 5 mM glucose + 10% dialyzed FBS, 0.569 µM
[30] = RPMI 5 mM glucose + 10% dialyzed FBS, 1.71 µM
[31] = RPMI 5 mM glucose + 10% dialyzed FBS, 5.12 µM
[32] = RPMI 5 mM glucose + 10% dialyzed FBS, 15.4 µM
[33] = RPMI 5 mM glucose + 10% dialyzed FBS, 46.1 µM

Structure (SMILES)	cell viability [1] [%]	cell viability [2] [%]	cell viability [3] [%]	cell viability [4] [%]	cell viability [5] [%]	cell viability [6] [%]	cell viability [7] [%]	cell viability [8] [%]	cell viability [9] [%]	cell viability [10] [%]	cell viability [11] [%]	cell viability [12] [%]	cell viability [13] [%]	cell viability [14] [%]	cell viability [15] [%]	cell viability [16] [%]	cell viability [17] [%]	cell viability [18] [%]	cell viability [19] [%]	cell viability [20] [%]	cell viability [21] [%]	cell viability [22] [%]	cell viability [23] [%]	cell viability [24] [%]	cell viability [25] [%]	cell viability [26] [%]	cell viability [27] [%]	cell viability [28] [%]	cell viability [29] [%]	cell viability [30] [%]	cell viability [31] [%]	cell viability [32] [%]	cell viability [33] [%]
CCNC(=O)CCC/C=C\C[C@@H]1[C@@H](/C=C/C(O)CCc2ccccc2)[C@@H](O)C[C@@H]1O (stereo partly drawn)	117	121	111	111	116	114	111	114	105	106	99.7	109	125	109	130	122	109	111	112	109	103	95	121	120	127	111	110	105	116	106	111	97.3	86.6
CN(CCOc1ccc(CC2SC(=O)NC2=O)cc1)c1ccccn1 (stereo not drawn)	116	124	113	121	116	115	120	114	114	111	103	123	130	122	116	120	125	129	125	115	113	106	123	123	127	119	116	123	127	118	113	112	97.4
NC1=NC(=O)N2CC12 (stereo not drawn)	91	103	101	107	103	97	103	99.7	83.1	3.88	2.17	92.5	91.2	96.2	102	106	97.4	104	67.8	59	2.82	0.916	85.3	94.6	92.1	90.9	87.4	88.5	95.6	73.5	59.9	6.25	2.73
O=C(/C=C/c1ccc(/C=C/C(=O)Nc2ccc(C3=NCCN3)cc2)cc1)Nc1ccc(C2=NCCN2)cc1	98.7	102	111	115	117	108	117	115	119	115	108	101	104	111	111	109	119	109	106	112	107	110	91.3	109	107	96.7	104	115	105	112	109	112	100
CNC(=O)c1ccc2c(c1)NC(=O)/C2=C(\Nc1cccc(CN(C)C)c1)c1ccccc1	92.9	97.2	98.5	99.8	100	101	98.9	89.1	35.8	87.6	0.763	87.3	98.2	97.3	105	102	101	103	92.5	36.5	83.5	1.21	86.4	95.6	108	101	102	101	103	97.5	35.6	81.8	1.03
CN(C)c1nc(Cc2ccc(NC(=O)c3ccc(C(F)(F)F)cc3)cc2)nc(N(C)C)c1CC(=O)O	106	100	107	104	105	103	99.5	102	103	98.2	90.3	106	109	99.5	105	109	103	103	108	100	103	98.5	95.7	96.7	99.6	105	94.7	96.9	99.3	96.8	95.1	93.8	85.2
